In patent publication US20220249441A1, “Homodimeric Tobramycin Adjuvant Repurposes Novobiocin as an Effective Antibacterial Agent Against Gram-Negative Bacteria” (priority 2019, published 2022):

Key:
[1] = test system: A. baumannii ATCC 17978 and resistant mutants; test: microbe, parasite or virus in culture; assay type: cell-based, Acinetobacter baumannii
Experimental: Antimicrobial Susceptibility Assay. The in vitro antimicrobial activity of all compounds/antibiotics against a panel of bacteria was evaluated by microbroth dilution method in accordance with the Clinical and Laboratory Standards Institute (CLSI) guidelines (using ATCC strains as quality control strains) (54). Overnight grown bacterial cultures were diluted in saline to achieve a 0.5 McFarland turbidity, followed by 1:50 dilution in Mueller-Hinton broth (MHB) for inoculation to a final concentration of approximately 5×10^5 CFU/mL. […] The lowest concentration that prevented the visible growth of bacteria was defined as the MIC for each antimicrobial agent. The broth with or without bacterial cells was used as positive or negative control, respectively.
(§1) Development of Resistance Study. […] Tobramycin and colistin were included as controls. At 24-hour intervals, the cultures were assessed for growth. […] This serial passaging was repeated for 8 days.

[2] = test system: Galleria mellonella; test: Galleria mellonella tolerability study; assay type: in vivo; conditions: 100 mg/kg single dose; after 96 h (4 days)
Experimental: Galleria mellonella In vivo Larvae-Infection Model. In vivo synergistic effects were determined using Galleria mellonella infection model, as previously described (49). Briefly, larvae were purchased from The Worm Lady Live Feeder (ON, Canada), stored in their natural habitat at 16° C., and used within 10 days of delivery. The larvae (average weight of 250 mg) were used for tolerability and efficacy studies. Tolerability study was performed by injecting a 10 μL aliquot of antimicrobial agents only at concentrations equivalent to 100 mg/kg or 200 mg/kg. The larvae (ten in each group) were incubated at 37° C. and monitored for 96 h. For efficacy studies, the virulence and bacterial load required to kill 100% of the larvae within 24 h (with no treatment) was first determined, which is approximately 10 CFU. Overnight grown culture of respective MDR A. baumannii isolate was standardized to 0.5 McFarland standard and diluted in PBS to a final concentration of 10^3 CFU/mL. A 10 μL aliquot of this solution (˜10 CFU) was injected into each larva and incubated for 3 h at 37° C. […] Larvae treated with 10 μL of PBS or high concentrations of test antibiotics served as negative and positive control, respectively. The larvae were incubated at 37° C. in Petri dishes lined with filter paper and scored for survivability every 6 h for up to 36 h. […]

[3] = test system: A. baumannii ATCC 17978; test: microbe, parasite or virus in culture; assay type: cell-based, Acinetobacter baumannii; conditions: after 7 days of serial passaging
Experimental: as §1

With Colistin as the substance, how does the MIC ([1]; Mutant A (seven serial passages, sub-MICs novobiocin)) read?
The MIC was 8 µg/mL.

And the MIC ([1]; Mutant B (seven serial passages, sub-MICs colistin))?
The MIC was 1024 µg/mL.

What about the MIC ([1]; Mutant C (seven serial passages, sub-MICs novobiocin + 7.1 μM compound 1)) of the same substance?
Its MIC is 0.031 µg/mL.

And the MIC ([1]; Wild-type A. baumannii ATCC 17978)?
Its MIC is 0.063 µg/mL.

And the “larvae killed (mortality)” value [2]?
The value was 90%.

What about the “fold change in MIC” value [3] of the same substance?
The value was 1024 fold.
